Key:
[1] = system: HT-29 colorectal cancer cells; experiment: HT-29 cell viability (Real-Time-Glo); format: cell-based; conditions: for IC50: Homo sapiens, HT-29, 72 hr, read-out: IC50, Cell line: HT-29
Description: Equal volume of 2× RealTime-Glo™ reagent (2 μl of MT Cell Viability Substrate 1,000×, and 2 μl of NanoLuc® Enzyme 1,000×, per 1 ml of media, Promega) was added to each well and cells were incubated at 37° C. Luminescence was evaluated at 72 h.
(§1) To determine the plating density for cell viability assays, for each cell line, cells were counted and diluted to final densities of 2.5, 5, 10 and 20 thousand per 100 μl of their respective growth media per well in 96 well plates. A Promega Real-Time-Glo cell viability kit was used to determine the optimal concentration for cell plating so that each cell line would be within the linear part of its growth curve after 72 hrs in culture. […] Test compounds were then added at different concentrations for the creation of six-point curve and cell density was determined using the Promega Real-Time-Glo cell viability kit after 24, 48, and 72 hrs in culture.
Specifically, the Promega Real-Time-Glo cell viability kit was used to determine the optimal concentration for cell plating so that each cell line would be within the linear part of its growth curve after 72 hrs in culture. […] Test compounds are then added at different concentrations for the creation of six-point curve and cell density is determined using the Promega Real-Time-Glo cell viability kit after 24, 48, and 72 hrs in culture. […]

[2] = system: A-498; experiment: A-498 kidney cancer cell viability (Real-Time-Glo); format: cell-based; conditions: Homo sapiens, A498; 72 hr; read-out: IC50, Cell line: A-498
Description: To determine the plating density for cell viability assays, for each cell line, cells were counted and diluted to final densities of 2.5, 5, 10 and 20 thousand per 100 μl of their respective growth media per well in 96 well plates. A Promega Real-Time-Glo cell viability kit was used to determine the optimal concentration for cell plating so that each cell line would be within the linear part of its growth curve after 72 hrs in culture. For the determination of test compound IC50s different cancer cell lines were plated in 96 well plates in the pre-determined optimal density for each cell line. Test compounds were then added at different concentrations for the creation of six-point curve and cell density was determined using the Promega Real-Time-Glo cell viability kit after 24, 48, and 72 hrs in culture. Test compound 72 hr IC50s were calculated using the AAT Bioquest IC50 calculator.

[3] = system: HCT-116; experiment: HCT-116 cell viability (Real-Time-Glo); format: cell-based; conditions: Homo sapiens, 72 hr, read-out: IC50, Cell line: HCT-116
Description: as §1

[4] = In-vitro half-life in rat liver microsomes; format: in vitro ADME; conditions: Rat liver microsomes 0.5 mg/mL; 1 μg/mL drug; NRS; read-out: Metabolic Half-life
How it was run: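 Compound at 1 μg/mL final was incubated with 0.5 mg/mL liver microsomes plus NADPH regenerating system at 37° C, sampled in duplicate at 0–60 min. Remaining parent was measured by LC-MS/MS, and half-life was calculated from first-order log-linear regression of % remaining versus time.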

[5] = system: C57BL/6 mice with DSS colitis; experiment: DSS colitis in C57BL/6 mice; format: in vivo; conditions: 25 mg/kg PO daily; day twelve
How it was run: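 C57BL/6 mice (20-22 g, n=8/group) dosed with test compound or vehicle; DSS added to drinking water 24 h later, replenished every 72 h for 5 days, then regular water. Body weight recorded daily; sacrifice on day twelve for clinical score, intestinal tissue (RNA, protein, histology) and serum cytokines.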

| IC50 [2] | IC50 [3] | half-life at 1 μg/mL [4] | IC50 [1] | Compound | growth of HT-29 colorectal cancer cells ([1]; luminescence at 72 h) | DSS Efficacy [5] |
| --- | --- | --- | --- | --- | --- | --- |
| 5 to 10 µM | 1 to 5 µM | > 60 min |  | COCCN1CCC(Nc2nc(N3CCC(F)(F)CC3)nc3cc(OCCCN4CCCC4)c(OC)cc23)CC1 [Compound 3, 2-(4,4-difluoropiperidin-1-yl)-6-methoxy-N-(1-(2-methoxyethyl)piperidin-4-yl)-7-(3-(pyrrolidin-1-yl)propoxy)quinazolin-4-amine] | potent anti-cancer activity |  |
| 1 to 5 µM | 1 to 5 µM | 37 min | 1 to 5 µM | COc1cc2c(Nc3ccncc3)nc(N3CCC(F)(F)CC3)nc2cc1OCCCN1CCCC1 [Compound 7, 2-(4,4-difluoropiperidin-1-yl)-6-methoxy-N-(pyridin-4-yl)-7-(3-(pyrrolidin-1-yl)propoxy)quinazolin-4-amine] |  | − |
| 5 to 10 µM | 1 to 5 µM | > 60 min | 1 to 5 µM | COc1cc2c(NC3CCN(C(C)C)CC3)nc(-n3ccnc3)nc2cc1OCCCN1CCCC1 [Compound 156, 2-(1H-imidazol-1-yl)-N-(1-isopropylpiperidin-4-yl)-6-methoxy-7-(3-(pyrrolidin-1-yl)propoxy)quinazolin-4-amine] |  |  |

Source: patent publication US11485728B2, “Small molecules for the treatment of autoimmune diseases and cancer” (Athos Therapeutics, Inc., priority 2020, dated 2022)
